Measured values published in EP0726072A2, “Composition for the treatment of hypertension and congestive heart failure, containing an angiotensin II antagonist and an endopeptidase inhibitor” (BRISTOL-MYERS SQUIBB COMPANY, priority 1995, dated 1996).

How the values were obtained:
[1] = test system: cardiomyopathic hamsters; settings: 30 µmol/kg, i.v.; within 90 minutes; previously shown in this model; cited from earlier work
[2] = test system: 1K1C hypertensive dogs; assay: Haemodynamic, renal and hormonal effects in conscious 1-kidney-1-clip hypertensive dogs; type: in vivo
Protocol: The studies described in this experiment were conducted in dogs that had been rendered hypertensive by prior unilateral nephrectomy and constriction of the remaining renal artery. This model is characterized by normal basal levels of plasma renin activity and is relatively resistant to the anti-hypertensive activity of angiotensin converting enzyme inhibitors and AT1 receptor antagonists.
The following experiments were conducted in fasted 1K1C hypertensive dogs lightly restrained in standard canine slings. An indwelling arterial catheter was accessed via a subcutaneous port for measurement of blood pressure via a Gould-Statham pressure transducer. Mean arterial pressure (MAP) was continuously recorded on a Gould chart writer and stored electronically using a Po-Ne-Mah data acquisition system. During each study, urine was collected at 20 minute intervals via a Foley bladder catheter for determination of urine volume. The concentrations of urinary sodium and potassium were measured using ion-selective electrodes and their rates of urinary excretion (µEq/min) were calculated. Glomerular filtration rate (GFR) and effective renal plasma flow (ERPF) were determined by the renal clearances of exogenous creatinine and para-aminohippuric acid (PAH), respectively. The concentrations of creatinine and PAH in sequential samples of urine and plasma were determined by spectrophotometric assays and the clearances were calculated by the standard formula.
Arterial blood samples were drawn at the end of the control period and at 60 minute intervals thereafter for determination of the plasma concentrations of atrial natriuretic peptide (ANP), cyclic GMP and plasma renin activity (PRA) by separate radioimmunoassays. The plasma and urine samples were preserved and the assays were conducted according to standard radioimmunoassay procedures. Urinary excretion rates of cyclic GMP and ANP were calculated and expressed as pmol/min and fmol/min, respectively.
In each study, baseline measurements were obtained during two 20 minute control periods. One of the treatments was then administered and sampling continued at 20 minute intervals for three hours.
To minimize inter-animal variability, each data point was expressed as the change from the average control value for that parameter. Significant differences among treatments were identified by analysis of variance for repeated measures. […] Results are given as mean ± SEM.

[3] = 20 min after treatment, 30 µmol/kg iv of each agent
[4] = 40 min after treatment, 30 µmol/kg iv of each agent
[5] = 60 min after treatment, 30 µmol/kg iv of each agent
[6] = 80 min after treatment, 30 µmol/kg iv of each agent
[7] = 100 min after treatment, 30 µmol/kg iv of each agent
[8] = 120 min after treatment, 30 µmol/kg iv of each agent
[9] = 140 min after treatment, 30 µmol/kg iv of each agent
[10] = 160 min after treatment, 30 µmol/kg iv of each agent
[11] = 180 min after treatment, 30 µmol/kg iv of each agent

SMILES: O=C(O)CCNC(=O)C(CS)Cc1ccccc1 (racemic) [SQ 28603, (±)-N-[2-(mercaptomethyl)-1-oxo-3-phenylpropyl]-β-alanine]
- plasma atrial natriuretic peptide concentration [1]: doubling
- increase in the amount of sodium excreted during the 3 hours after injection ([2]; 30 µmol/kg iv of each agent, cumulative over 3 hours): 5.2±2.3 mEq/3 hr
- Cyclic GMP excretion, change over 3 hr ([2]; 30 µmol/kg iv of each agent, not statistically significant compared to vehicle): +32±28 nmol/3 hr
- ANP Excretion, Change from control [2, 3]: 20.8 ± 4.9 fmol/min
- Cyclic GMP Excretion, Change from control [2, 3]: 106 ± 295 pmol/min
- Effective Renal Plasma Flow, Change from control [2, 3]: 6 ± 38 mL/min
- Glomerular Filtration Rate, Change from control [2, 3]: 6 ± 11 mL/min
- Mean Arterial Pressure, Change from control [2, 3]: 6±1 mm Hg
- Sodium Excretion, Change from control [2, 3]: 13±4 µEq/min
- Urine Volume, Change from control [2, 3]: 0.29 ± 0.31 mL/min
- ANP Excretion, Change from control [2, 4]: 24.0 ± 4.6 fmol/min
- Cyclic GMP Excretion, Change from control [2, 4]: 101 ± 280 pmol/min
- Effective Renal Plasma Flow, Change from control [2, 4]: -5 ± 15 mL/min
- Glomerular Filtration Rate, Change from control [2, 4]: 3 ± 2 mL/min
- Mean Arterial Pressure, Change from control [2, 4]: 9±3 mm Hg
- Sodium Excretion, Change from control [2, 4]: 21±16 µEq/min
- Urine Volume, Change from control [2, 4]: 0.15 ± 0.13 mL/min
- ANP Excretion, Change from control [2, 5]: 45.2 ± 24.2 fmol/min
- Cyclic GMP Excretion, Change from control [2, 5]: 338 ± 206 pmol/min
- Effective Renal Plasma Flow, Change from control [2, 5]: 3 ± 20 mL/min
- Glomerular Filtration Rate, Change from control [2, 5]: 6 ± 5 mL/min
- Mean Arterial Pressure, Change from control [2, 5]: 8±3 mm Hg
- Plasma Renin Activity, Change from control [2, 5]: -0.07±0.05 pmol AI/ml/hr
- Sodium Excretion, Change from control [2, 5]: 14±9 µEq/min
- Urine Volume, Change from control [2, 5]: 0.18 ± 0.14 mL/min
- ANP Excretion, Change from control [2, 6]: 55.5 ± 19.7 fmol/min
- Cyclic GMP Excretion, Change from control [2, 6]: 226 ± 154 pmol/min
- Effective Renal Plasma Flow, Change from control [2, 6]: -20 ± 6 mL/min
- Glomerular Filtration Rate, Change from control [2, 6]: 5 ± 2 mL/min
- Mean Arterial Pressure, Change from control [2, 6]: 8±2 mm Hg
- Sodium Excretion, Change from control [2, 6]: 25±13 µEq/min
- Urine Volume, Change from control [2, 6]: 0.21 ± 0.15 mL/min
- ANP Excretion, Change from control [2, 7]: 41.0 ± 12.3 fmol/min
- Cyclic GMP Excretion, Change from control [2, 7]: 128 ± 178 pmol/min
- Effective Renal Plasma Flow, Change from control [2, 7]: -25 ± 10 mL/min
- Glomerular Filtration Rate, Change from control [2, 7]: 5 ± 4 mL/min
- Mean Arterial Pressure, Change from control [2, 7]: 5±3 mm Hg
- Sodium Excretion, Change from control [2, 7]: 24±12 µEq/min
- Urine Volume, Change from control [2, 7]: 0.07 ± 0.08 mL/min
- ANP Excretion, Change from control [2, 8]: 48.3 ± 21.5 fmol/min
- Cyclic GMP Excretion, Change from control [2, 8]: 117 ± 220 pmol/min
- Effective Renal Plasma Flow, Change from control [2, 8]: -15 ± 6 mL/min
- Glomerular Filtration Rate, Change from control [2, 8]: 5 ± 1 mL/min
- Mean Arterial Pressure, Change from control [2, 8]: 3±4 mm Hg
- Plasma Renin Activity, Change from control [2, 8]: -0.02±0.05 pmol AI/ml/hr
- Sodium Excretion, Change from control [2, 8]: 35±19 µEq/min
- Urine Volume, Change from control [2, 8]: 0.12 ± 0.13 mL/min
- ANP Excretion, Change from control [2, 9]: 41.8 ± 14.2 fmol/min
- Cyclic GMP Excretion, Change from control [2, 9]: 121 ± 182 pmol/min
- Effective Renal Plasma Flow, Change from control [2, 9]: -11 ± 12 mL/min
- Glomerular Filtration Rate, Change from control [2, 9]: 7 ± 4 mL/min
- Mean Arterial Pressure, Change from control [2, 9]: 4±2 mm Hg
- Sodium Excretion, Change from control [2, 9]: 39±18 µEq/min
- Urine Volume, Change from control [2, 9]: 0.20 ± 0.10 mL/min
- ANP Excretion, Change from control [2, 10]: 36.9 ± 12.4 fmol/min
- Cyclic GMP Excretion, Change from control [2, 10]: 100 ± 246 pmol/min
- Effective Renal Plasma Flow, Change from control [2, 10]: -1 ± 12 mL/min
- Glomerular Filtration Rate, Change from control [2, 10]: 9 ± 5 mL/min
- Mean Arterial Pressure, Change from control [2, 10]: 5±2 mm Hg
- Sodium Excretion, Change from control [2, 10]: 44±19 µEq/min
- Urine Volume, Change from control [2, 10]: 0.24 ± 0.11 mL/min
- ANP Excretion, Change from control [2, 11]: 29.0 ± 7.9 fmol/min
- Cyclic GMP Excretion, Change from control [2, 11]: 343 ± 170 pmol/min
- Effective Renal Plasma Flow, Change from control [2, 11]: -4 ± 9 mL/min
- Glomerular Filtration Rate, Change from control [2, 11]: 10 ± 4 mL/min
- Mean Arterial Pressure, Change from control [2, 11]: 7±3 mm Hg
- Plasma Renin Activity, Change from control [2, 11]: -0.01±0.7 pmol AI/ml/hr
- Sodium Excretion, Change from control [2, 11]: 44±18 µEq/min
- Urine Volume, Change from control [2, 11]: 0.17 ± 0.06 mL/min
- ANP Excretion ([2]; Control, before treatment): 1.9 ± 0.2 fmol/min
- Cyclic GMP Excretion ([2]; Control, before treatment): 1017 ± 180 pmol/min
- Effective Renal Plasma Flow ([2]; Control, before treatment): 123 ± 15 mL/min
- Glomerular Filtration Rate ([2]; Control, before treatment): 39 ± 5 mL/min
- Mean Arterial Pressure ([2]; Control, before treatment): 132±8 mm Hg
- Plasma Renin Activity ([2]; Control, before treatment): 0.16±0.02 pmol AI/ml/hr
- Sodium Excretion ([2]; Control, before treatment): 40±20 µEq/min
- Urine Volume ([2]; Control, before treatment): 0.38 ± 0.13 mL/min
- sodium excretion, effect in words ([2]; summary of TABLE 2, 30 µmol/kg iv of each agent, 3 hours): increased
- urine volume, effect in words ([2]; summary of TABLE 3, 30 µmol/kg iv of each agent, 3 hours): increased
- Urinary excretion of ANP, effect in words ([2]; summary of TABLE 6, 30 µmol/kg iv of each agent): increased significantly
- mean arterial pressure (MAP), effect in words ([2]; summary of Table 1, 30 µmol/kg iv of each agent, 3 hours): initially increased
